# Results: the supplement of paper PMC10307832
# Experiments:
# Experiment in all cases: relative viability (nuclei count vs DMSO), 5 days (fraction); higher = more cells survive
# Bosutinib + Vorinostat = compound: COc1cc(Nc2c(C#N)cnc3cc(OCCCN4CCN(C)CC4)c(OC)cc23)c(Cl)cc1Cl [Bosutinib] + O=C(CCCCCCC(=O)Nc1ccccc1)NO [Vorinostat] (partner 1 µM)
# Procedure, shortened: (§1)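 Nuclei were stained with Hoechst during a one-step fixation (final 0.05% Triton X-100, 1% formaldehyde, 1 ug/ml Hoechst) carried out 5 days after dosing, then counted on 4× images. The cells, lung cancer lines in 1536-well plates, had been dosed by pin tool the day after seeding with one drug alone or a fixed anchor-drug dose plus five library-drug doses (not always all listed) in √10 steps. Relative viability is the nuclei count in treated wells divided by that in vehicle wells, and each value is the median of duplicate plates.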
# Bosutinib + Tozasertib = compound: COc1cc(Nc2c(C#N)cnc3cc(OCCCN4CCN(C)CC4)c(OC)cc23)c(Cl)cc1Cl [Bosutinib] + Cc1cc(Nc2cc(N3CCN(C)CC3)nc(Sc3ccc(NC(=O)C4CC4)cc3)n2)n[nH]1 [Tozasertib] (partner 0.1 µM)
# Procedure, shortened: as §1
# Bosutinib + Phenformin = compound: COc1cc(Nc2c(C#N)cnc3cc(OCCCN4CCN(C)CC4)c(OC)cc23)c(Cl)cc1Cl [Bosutinib] + N=C(N)NC(=N)NCCc1ccccc1 [Phenformin] (partner 250 µM)
# Procedure, shortened: as §1
# Bosutinib + Pictilisib = compound: COc1cc(Nc2c(C#N)cnc3cc(OCCCN4CCN(C)CC4)c(OC)cc23)c(Cl)cc1Cl [Bosutinib] + CS(=O)(=O)N1CCN(Cc2cc3nc(-c4cccc5[nH]ncc45)nc(N4CCOCC4)c3s2)CC1 [Pictilisib] (partner 1 µM)
# Procedure, shortened: as §1
# Bosutinib + Alpelisib = compound: COc1cc(Nc2c(C#N)cnc3cc(OCCCN4CCN(C)CC4)c(OC)cc23)c(Cl)cc1Cl [Bosutinib] + Cc1nc(NC(=O)N2CCC[C@H]2C(N)=O)sc1-c1ccnc(C(C)(C)C(F)(F)F)c1 [Alpelisib] (partner 2 µM)
# Procedure, shortened: as §1
Cell Line,relative viability (Bosutinib + Vorinostat; first compound 0.01 µM),relative viability (Bosutinib + Vorinostat; first compound 0.03162 µM),relative viability (Bosutinib + Vorinostat; first compound 0.1 µM),relative viability (Bosutinib + Vorinostat; first compound 1 µM),relative viability (Bosutinib + Tozasertib; first compound 0.01 µM),relative viability (Bosutinib + Tozasertib; first compound 0.03162 µM),relative viability (Bosutinib + Tozasertib; first compound 0.1 µM),relative viability (Bosutinib + Tozasertib; first compound 1 µM),relative viability (Bosutinib + Phenformin; first compound 0.01 µM),relative viability (Bosutinib + Phenformin; first compound 0.03162 µM),relative viability (Bosutinib + Phenformin; first compound 0.1 µM),relative viability (Bosutinib + Phenformin; first compound 1 µM),relative viability (Bosutinib + Pictilisib; first compound 0.01 µM),relative viability (Bosutinib + Pictilisib; first compound 0.03162 µM),relative viability (Bosutinib + Pictilisib; first compound 0.1 µM),relative viability (Bosutinib + Pictilisib; first compound 1 µM),relative viability (Bosutinib + Alpelisib; first compound 0.01 µM),relative viability (Bosutinib + Alpelisib; first compound 0.03162 µM),relative viability (Bosutinib + Alpelisib; first compound 0.1 µM),relative viability (Bosutinib + Alpelisib; first compound 1 µM)
NCI-H322M,0.751,0.856,0.857,0.54,0.472,0.46,0.497,0.315,0.865,0.777,0.846,0.449,0.469,0.495,0.525,0.485,0.665,0.741,0.717,0.81
NCI-H358,0.634,0.697,0.548,0.483,0.101,0.106,0.109,0.113,0.387,0.309,0.32,0.357,0.407,0.368,0.363,0.379,0.862,0.817,0.771,0.585
NCI-H441,0.827,0.885,0.936,0.835,0.673,0.589,0.599,0.823,0.946,0.869,0.821,0.657,0.669,0.483,0.634,0.459,0.475,0.689,0.733,1.11
NCI-H460,0.719,0.717,0.761,0.775,0.555,0.545,0.479,0.112,0.557,0.492,0.491,0.356,0.38,0.353,0.321,0.299,0.5,0.533,0.428,0.201
NCI-H520,0.729,0.735,0.724,0.708,0.407,0.446,0.39,0.347,0.677,0.64,0.507,0.393,0.309,0.279,0.288,0.281,0.96,0.786,0.968,0.66
NCI-H596,0.685,0.557,0.509,0.573,1.06,0.828,0.893,0.788,0.883,0.668,0.721,0.646,0.398,0.369,0.405,0.392,0.505,0.992,0.945,0.348
NCI-H647,0.584,0.568,0.667,0.642,0.38,0.203,0.389,0.201,0.606,0.494,0.436,0.348,0.508,0.436,0.432,0.372,1.34,1.33,1.03,0.543
NCI-H650,0.446,0.356,0.483,0.415,0.74,0.772,0.721,0.801,0.447,0.45,0.472,0.482,0.913,0.878,0.914,0.997,1.15,1.12,1.21,1.18
NCI-H661,0.784,0.912,0.866,0.829,0.34,0.362,0.385,0.425,0.281,0.3,0.287,0.269,0.351,0.53,0.386,0.327,0.407,0.881,0.88,0.477
NCI-H727,1.04,1.27,1.33,0.973,0.577,0.598,0.549,0.441,0.695,0.371,0.42,0.407,0.447,0.435,0.297,0.282,0.59,0.549,0.537,0.449
NCI-H838,0.741,0.766,0.755,0.746,0.306,0.294,0.263,0.215,0.658,0.56,0.53,0.375,0.468,0.429,0.414,0.319,0.961,0.879,0.864,0.432
NCI-H1355,0.655,0.694,0.708,0.625,0.549,0.603,0.524,0.475,0.517,0.474,0.448,0.362,0.465,0.545,0.572,0.412,0.871,0.816,0.893,0.72
NCI-H1395,0.802,0.827,0.862,0.787,0.758,0.727,0.718,0.66,0.38,0.44,0.461,0.451,0.597,0.758,0.818,0.719,1.23,1.09,1.18,0.913
NCI-H1437,0.875,0.793,0.842,0.805,0.401,0.426,0.407,0.344,0.341,0.305,0.335,0.287,0.465,0.395,0.54,0.483,0.939,0.954,1.04,0.862
NCI-H1651,0.548,0.636,0.646,0.569,0.586,0.742,0.612,0.624,0.32,0.322,0.331,0.357,0.579,0.62,0.62,0.687,0.928,0.961,0.854,0.734
NCI-H1666,0.99,0.99,1.12,1.22,0.57,0.626,0.629,0.662,0.536,0.545,0.552,0.597,0.469,0.32,0.417,0.405,0.982,0.947,1.07,0.865

Cell Line,relative viability (Bosutinib + Vorinostat; first compound 0.01 µM),relative viability (Bosutinib + Vorinostat; first compound 0.03162 µM),relative viability (Bosutinib + Vorinostat; first compound 0.1 µM),relative viability (Bosutinib + Vorinostat; first compound 1 µM),relative viability (Bosutinib + Tozasertib; first compound 0.01 µM),relative viability (Bosutinib + Tozasertib; first compound 0.03162 µM),relative viability (Bosutinib + Tozasertib; first compound 0.1 µM),relative viability (Bosutinib + Tozasertib; first compound 1 µM),relative viability (Bosutinib + Phenformin; first compound 0.01 µM),relative viability (Bosutinib + Phenformin; first compound 0.03162 µM),relative viability (Bosutinib + Phenformin; first compound 0.1 µM),relative viability (Bosutinib + Phenformin; first compound 1 µM),relative viability (Bosutinib + Pictilisib; first compound 0.01 µM),relative viability (Bosutinib + Pictilisib; first compound 0.03162 µM),relative viability (Bosutinib + Pictilisib; first compound 0.1 µM),relative viability (Bosutinib + Pictilisib; first compound 1 µM),relative viability (Bosutinib + Alpelisib; first compound 0.01 µM),relative viability (Bosutinib + Alpelisib; first compound 0.03162 µM),relative viability (Bosutinib + Alpelisib; first compound 0.1 µM),relative viability (Bosutinib + Alpelisib; first compound 1 µM)
NCI-H1734,0.836,0.86,0.855,0.654,0.245,0.242,0.245,0.248,0.455,0.382,0.375,0.312,0.507,0.427,0.447,0.447,0.642,0.632,0.748,0.59
NCI-H1755,0.809,0.919,0.904,0.731,0.585,0.736,0.605,0.5,0.635,0.682,0.659,0.588,0.45,0.497,0.509,0.287,0.916,0.961,0.998,0.739
NCI-H1793,0.718,0.75,0.877,0.504,0.363,0.404,0.373,0.23,0.431,0.387,0.364,0.242,0.394,0.321,0.383,0.292,0.669,0.603,0.711,0.49
NCI-H1915,0.509,0.531,0.578,0.571,0.438,0.449,0.429,0.419,0.365,0.365,0.382,0.348,1.04,0.988,1.02,0.968,1.03,1.07,1.1,1.06
NCI-H1944,0.608,0.577,0.572,0.569,0.275,0.262,0.258,0.19,0.203,0.193,0.202,0.186,0.35,0.327,0.333,0.345,0.849,0.826,0.826,0.614
NCI-H1975,0.654,0.684,0.684,0.673,0.739,0.871,0.687,0.583,0.401,0.447,0.437,0.403,0.283,0.318,0.338,0.253,0.615,0.688,0.67,0.433
NCI-H1993,0.727,0.733,0.654,0.885,0.549,0.538,0.564,0.496,0.513,0.511,0.492,0.59,0.827,0.896,0.967,0.741,0.635,0.69,0.641,0.669
NCI-H2009,0.78,0.809,0.758,0.562,0.732,0.82,0.73,0.572,0.53,0.49,0.423,0.346,0.997,0.866,0.927,0.557,1.2,1.15,1.1,0.767
NCI-H2023,0.617,0.661,0.767,0.396,0.295,0.462,0.399,0.233,0.415,0.4,0.376,0.295,0.25,0.235,0.272,0.233,0.581,0.655,0.538,0.426
NCI-H2085,0.866,0.769,0.788,0.705,0.782,0.692,0.765,0.738,0.825,0.705,0.652,0.515,0.441,0.45,0.425,0.489,0.978,0.976,0.903,0.988
NCI-H2087,0.777,0.5,0.647,0.697,0.293,0.227,0.222,0.271,0.563,0.43,0.411,0.457,0.753,0.865,0.972,0.798,1.18,1.15,1.19,1
NCI-H2126,0.71,0.799,0.858,0.722,0.823,0.811,0.828,0.763,0.519,0.567,0.544,0.568,0.496,0.517,0.522,0.506,0.712,0.781,0.733,0.685
NCI-H2170,0.882,0.832,0.891,0.774,0.749,0.758,0.683,0.632,0.391,0.418,0.427,0.328,0.348,0.359,0.301,0.271,0.821,0.866,0.797,0.711
NCI-H2228,0.664,0.442,0.605,0.552,0.313,0.319,0.306,0.287,0.308,0.236,0.284,0.326,0.451,–,0.229,0.297,0.772,–,0.75,0.587
NCI-H2347,0.461,0.579,0.654,0.543,0.599,0.571,0.638,0.514,0.323,0.453,0.54,0.376,0.648,0.575,0.697,0.383,1,1.07,1.06,1.12
